Source: patent US9783537B2, “3-(4-ethylnylphenyl) pyridopyrimidinone compounds and process for preparation thereof useful as potential anticancer agents” (Council of Scientific & Industrial Research, priority 2013, dated 2017)
Like-named read-outs stand apart in the source and are kept apart here.

How the values were obtained:
[1] = system: SNB-19; test: SRB 48 h growth assay, CNS SNB-19; assay type: cell-based, human; conditions: Homo sapiens, SNB-19, CNS
[2] = system: LOX IMVI; test: SRB 48 h growth assay, Melanoma LOX IMVI; assay type: cell-based, human; conditions: for GI50: Homo sapiens
[3] = system: HCT-116; test: SRB 48 h growth assay, Colon HCT-116; assay type: cell-based, human; conditions: HCT-116, Colon
[4] = system: eight renal cancer cell line (786-0, A498, ACHN, CAKI-1, SN12C, TK-10, UO-31 and RXF 393); test: in vitro anticancer activity, renal panel; assay type: cell-based; conditions: Homo sapiens; eight renal cancer cell lines, exposure at least 48 h; read-out: in vitro anticancer activity, range over panel
[5] = system: HL-60(TB); test: SRB 48 h growth assay, Leukemia HL-60(TB); assay type: cell-based, human
[6] = system: NCI-H226; test: SRB 48 h growth assay, Non-small Cell Lung NCI-H226; assay type: cell-based, human
[7] = system: SK-MEL-28; test: SRB 48 h growth assay, Melanoma SK-MEL-28; assay type: cell-based, human; conditions: SK-MEL-28, Melanoma; for GI50: Homo sapiens
[8] = system: SNB-75; test: SRB 48 h growth assay, CNS SNB-75; assay type: cell-based, human; conditions: SNB-75, CNS; for GI50: Homo sapiens
[9] = system: KM12; test: SRB 48 h growth assay, Colon KM12; assay type: cell-based, human
[10] = system: SK-MEL-5; test: SRB 48 h growth assay, Melanoma SK-MEL-5; assay type: cell-based, human; conditions: SK-MEL-5, Melanoma
[11] = system: HOP-92; test: SRB 48 h growth assay, Non-small Cell Lung HOP-92; assay type: cell-based, human; conditions: HOP-92, Non-small Cell Lung
[12] = system: OVCAR-8; test: SRB 48 h growth assay, Ovarian OVCAR-8; assay type: cell-based, human; conditions: Homo sapiens, OVCAR-8, Ovarian
[13] = system: OVCAR-3; test: SRB 48 h growth assay, Ovarian OVCAR-3; assay type: cell-based, human; conditions: OVCAR-3, Ovarian
[14] = in vitro anticancer activity, melanoma panel; assay type: cell-based; conditions: Homo sapiens; nine melanoma cell lines, exposure at least 48 h; read-out: GI50, range over panel
[15] = system: UO-31; test: SRB 48 h growth assay, Renal UO-31; assay type: cell-based, human; conditions: UO-31, Renal
[16] = system: NCI/ADR-RES; test: SRB 48 h growth assay, Ovarian NCI/ADR-RES; assay type: cell-based, human
[17] = system: COLO 205; test: SRB 48 h growth assay, Colon COLO 205; assay type: cell-based, human; conditions: COLO 205, Colon
[18] = in vitro anticancer activity, non-small cell lung panel; assay type: cell-based; conditions: Homo sapiens; nine non-small cell lung cancer cell lines, exposure at least 48 h; read-out: GI50, range over panel
[19] = system: six leukemia cancer cell lines (CCRF-CEM, HL-60, K-562, MOLT-4, SR and RPMI-8226); test: in vitro anticancer activity, leukemia panel; assay type: cell-based; conditions: Homo sapiens, exposure at least 48 h, read-out: GI50, range over panel
[20] = system: UACC-257; test: SRB 48 h growth assay, Melanoma UACC-257; assay type: cell-based, human; conditions: UACC-257, Melanoma
[21] = system: IGROV1; test: SRB 48 h growth assay, Ovarian IGROV1; assay type: cell-based, human
[22] = system: SK-OV-3; test: SRB 48 h growth assay, Ovarian SK-OV-3; assay type: cell-based, human; conditions: SK-OV-3, Ovarian
[23] = system: NCI-H322M; test: SRB 48 h growth assay, Non-small Cell Lung NCI-H322M; assay type: cell-based, human
[24] = system: SW-620; test: SRB 48 h growth assay, Colon SW-620; assay type: cell-based, human; conditions: SW-620, Colon
[25] = system: MDA-MB-468; test: SRB 48 h growth assay, Breast MDA-MB-468; assay type: cell-based, human; conditions: MDA-MB-468, Breast
[26] = system: SF-539; test: SRB 48 h growth assay, CNS SF-539; assay type: cell-based, human; conditions: SF-539, CNS; for GI50: Homo sapiens
[27] = read-out: Growth Inhibition GI50
[28] = read-out: Log10 GI50 (converted)
[29] = read-out: Log10 LC50 (converted)
[30] = Homo sapiens, read-out: Growth Inhibition GI50
[31] = Homo sapiens, read-out: Log10 GI50 (converted)
[32] = Homo sapiens, read-out: Log10 LC50 (converted)

C#Cc1ccc(-n2c(/C=C/c3ccc4ccccc4n3)nc3ncccc3c2=O)cc1 [4t, (E)-3-(4-Ethynylphenyl)-2-(2-(quinolin-2-yl)vinyl)pyrido[2,3-d]pyrimidin-4(3H)-one]
GI50 [1, 27]: 0.72 µM | GI50 [1, 28]: 0.724 µM | CC50 [1, 29]: > 100 µM | Log10 TGI50 [2]: −5.99 | GI50 [2, 27]: 0.32 µM | GI50 [2, 28]: 0.324 µM | Log10 TGI50 [3]: −5.92 | GI50 [3, 30]: 0.34 µM | GI50 [3, 31]: 0.347 µM | CC50 [3, 32]: 3.89 µM | GI50 [4]: 1.48 to 8.78 µM | Log10 TGI50 [5]: −6.07 | GI50 [5, 30]: 0.29 µM | GI50 [5, 31]: 0.295 µM | CC50 [5, 32]: > 100 µM | Log10 TGI50 [6]: −6.15 | GI50 [6, 30]: 0.25 µM | GI50 [6, 31]: 0.251 µM | LC50 [6, 32]: 5.89 µM | GI50 [7, 27]: 1.05 µM | GI50 [7, 28]: 1.05 µM | Log10 TGI50 [7]: −5.51 | GI50 [8, 27]: 0.33 µM | GI50 [8, 28]: 0.339 µM | Log10 TGI50 [8]: −5.85 | Log10 TGI50 [9]: −5.97 | GI50 [9, 30]: 0.32 µM | GI50 [9, 31]: 0.324 µM | CC50 [9, 32]: 3.47 µM | GI50 [10, 30]: 0.17 µM | GI50 [10, 31]: 0.178 µM | CC50 [10, 32]: 0.759 µM | Log10 TGI50 [10]: −6.43 | Log10 TGI50 [11]: −5.01 | GI50 [11, 30]: 0.18 µM | GI50 [11, 31]: 0.186 µM | CC50 [11, 32]: > 100 µM | GI50 [12, 27]: 0.34 µM | GI50 [12, 28]: 0.347 µM | CC50 [12, 29]: > 100 µM | GI50 [13, 30]: 0.3 µM | GI50 [13, 31]: 0.302 µM | CC50 [13, 32]: 4.79 µM | Log10 TGI50 [13]: −6.06 | GI50 [14]: 1.6 to 6.3 µM | GI50 [15, 30]: 0.31 µM | GI50 [15, 31]: 0.316 µM | CC50 [15, 32]: 6.92 µM | Log10 TGI50 [15]: −5.78 | Log10 TGI50 [16]: −5.75 | GI50 [16, 30]: 0.38 µM | GI50 [16, 31]: 0.38 µM | CC50 [16, 32]: > 100 µM | Log10 TGI50 [17]: −6.13 | GI50 [17, 30]: 0.3 µM | GI50 [17, 31]: 0.302 µM | CC50 [17, 32]: 3.63 µM | GI50 [18]: 1.8 to 5.66 µM | GI50 [19]: 3.2 to 7.35 µM | GI50 [20, 30]: 0.43 µM | GI50 [20, 31]: 0.437 µM | CC50 [20, 32]: 8.71 µM | Log10 TGI50 [20]: −5.66 | Log10 TGI50 [21]: −5.87 | GI50 ([21]; Homo sapiens, IGROV-1, read-out: Growth Inhibition GI50): 0.4 µM | GI50 ([21]; Homo sapiens, IGROV-1, read-out: Log10 GI50 (converted)): 0.398 µM | CC50 ([21]; Homo sapiens, IGROV-1, read-out: Log10 LC50 (converted)): 5.37 µM | GI50 [22, 30]: 0.32 µM | GI50 [22, 31]: 0.324 µM | CC50 [22, 32]: > 100 µM | Log10 TGI50 [22]: −6.03 | Log10 TGI50 [23]: −5.62 | GI50 [23, 30]: 0.52 µM | GI50 [23, 31]: 0.525 µM | CC50 [23, 32]: > 100 µM | GI50 [24, 30]: 0.35 µM | GI50 [24, 31]: 0.355 µM | CC50 [24, 32]: 3.89 µM | Log10 TGI50 [24]: −5.90 | GI50 [25, 30]: 0.23 µM | GI50 [25, 31]: 0.234 µM | CC50 [25, 32]: 3.47 µM | Log10 TGI50 [25]: −6.05 | GI50 [26, 27]: 0.2 µM | GI50 [26, 28]: 0.204 µM | Log10 TGI50 [26]: −6.29
